Values after ≈ are worked out from the molar mass of the structure shown. Where two headings read alike, the source gives them in different places.
Legend:
Mtb isolate H37Rv = conditions: whole-cell screen; cited from earlier work
M tuberculosis = assay type: in vivo, Mycobacterium tuberculosis in GKO mice
Mtb strain mc^27000 = assay: microbe, parasite or virus in culture; assay type: cell-based, Mycobacterium tuberculosis
[1] = molecular target: Mtb Pks13-TE domain (wild-type) (Mycobacterium tuberculosis, UniProt I6X8D2); assay: biochemical; assay type: biochemical
Chain of Mtb Pks13-TE domain (wild-type) (I6X8D2 1451-1733): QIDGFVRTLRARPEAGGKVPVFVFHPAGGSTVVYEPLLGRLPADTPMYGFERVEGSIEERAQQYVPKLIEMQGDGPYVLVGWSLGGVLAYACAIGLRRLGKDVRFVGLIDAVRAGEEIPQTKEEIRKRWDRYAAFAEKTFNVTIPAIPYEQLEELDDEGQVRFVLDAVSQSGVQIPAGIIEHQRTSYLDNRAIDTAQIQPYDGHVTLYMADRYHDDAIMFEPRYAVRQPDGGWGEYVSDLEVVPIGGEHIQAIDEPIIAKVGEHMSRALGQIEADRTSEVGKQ

[2] = GKO mice, 300 mg/kg, 200 mg/kg from day 4; seizures
[3] = test system: human dermal fibroblast (HDF) cells

SMILES | MIC against Mtb isolate H37Rv (Mtb isolate H37Rv) [µM] | log CFU reduction versus untreated control in the lungs (M tuberculosis; GKO mice, 300 mg/kg then 200 mg/kg from day 4, sacrificed day 8 of dosing, no drug clearance period, lungs) [log CFU] | log CFU reduction versus untreated control in the spleen (M tuberculosis; GKO mice, 300 mg/kg then 200 mg/kg from day 4, sacrificed day 8 of dosing, no drug clearance period, spleen) [log CFU] | Lung CFU (M tuberculosis; mouse, in vivo) | Lung RLU (M tuberculosis; mouse, in vivo) | Spleen CFU (M tuberculosis; mouse, in vivo) | Spleen RLU (M tuberculosis; mouse, in vivo) | MIC (Mtb strain mc^27000; Mtb mc^27000, liquid medium, 96-well plates, listed as compound L, read-out: MIC) [µM] | MIC (Mtb strain mc^27000; Mtb mc^27000, liquid medium, 96-well plates, read-out: MIC) [µM] | MIC (Mtb strain mc^27000; Mycobacterium tuberculosis, […], mean ± s.d. of triplicates, NI: no inhibition, read-out: MIC) [µM] | MIC (Mtb strain mc^27000; Mycobacterium tuberculosis, read-out: Pks13 MIC) [µM] | MIC lower than that of the test compound (Mtb strain mc^27000; relative to test compound) [fold] | IC50 ([1]; Mtb Pks13-TE domain, mean ± s.d. of triplicates, read-out: IC50) [µM] | IC50 ([1]; Pks13-TE, 20 μM 4-MUH, read-out: IC50) [µM] | IC50 ([1]; Pks13 enzyme inhibition, read-out: Pks13 IC50) [µM] | toxicity observed during dosing [2] | growth inhibition in HDF cells relative to DMSO only control [3] | Survival vs. Control ([3]; HDF cell survival relative to DMSO-only control at the first (or only) Non-Toxic Concentration value) [%] | Non-Toxic Concentration ([3]; human, 48 h) [µM]
CCOC(=O)c1c(-c2ccccc2)oc2ccc(O)c(CN3CCC(C)CC3)c12 [test compound] | 2.0 (≈ 0.787 µg/mL) | – | – | – | – | – | – | – | – | – | – | – | – | – | – | – | – | – | –
CNC(=O)c1c(-c2ccccc2)oc2ccc(O)c(CN3CCCCC3)c12 [compound 17] | – | 0.53 | 3.72 | 7.21 | 4.24 | 3.01 | 1.85 | 0.2 (≈ 0.0729 µg/mL) | 2 (≈ 0.729 µg/mL) | 0.2 (≈ 0.0729 µg/mL) | 0.2 (≈ 0.0729 µg/mL) | > 10 | 0.29 ± 0.01 | 0.29 | 0.29 | apparent toxicity | did not show any growth inhibition | 103 | 50

From patent US20180111913A1, “SUBSTITUTED BENZOFURAN DERIVATIVES AS NOVEL ANTIMYCOBACTERIAL AGENTS” (priority 2015, published 2018)
